Laboratory results: patent publication US20210177893A1, “Composition and method for treating and healing Medication-Related Osteonecrosis of the Jaw (MRONJ)” (priority 2019, published 2021)

Columns and labels:
MRONJ [1] = settings: oral alendronate users, 208 patients; cited from earlier work
MRONJ [2] = settings: out of 24 patients treated with 0.12% chlorhexidine; cited from earlier work
[3] = tested on: capillary neoangiogenesis; settings: cited from earlier work
[4] = in the glycerin gels; cited from earlier work
[5] = tested on: oral mucosal cells (human gingival fibroblasts and keratinocytes); settings: direct application, in vitro; cited from earlier work
MRONJ lesions = experiment: Clinical observation of MRONJ patients (Example 1); type: in vivo, human; settings: one patient on intravenous zoledronate, multiple myeloma; lesion smoothed, antibiotic regimen; observed a little over a year

For `NCCCC(O)(P(=O)(O)O)P(=O)(O)O` [alendronate], the MRONJ prevalence rate (MRONJ [1]) is listed as 4%.
For `[H]/N=C(\N/C(=N/[H])NCCCCCCNC(=N)NC(=N)Nc1ccc(Cl)cc1)Nc1ccc(Cl)cc1` [chlorhexidine], the “patients who experienced MRONJ progression” value (MRONJ [2]) is listed as 13 patients, the “patients who experienced MRONJ resolution” value (MRONJ [2]) is listed as 3 patients and the “patients who experienced no change in ONJ status” value (MRONJ [2]) is listed as 8 patients.
For `NCCC(O)(P(=O)(O)O)P(=O)(O)O` [pamidronate], the “effect on new formation of capillaries from blood vessels (capillary neoangiogenesis)” value [3] is given as “inhibit the new formation of capillaries from blood vessels”.
For `[F][Sn][F]` [stannous fluoride], the stability [4] is listed as “relatively stable”.
In the case of `O=P(O)(O)C(O)(Cn1ccnc1)P(=O)(O)O` [zoledronic acid], the “effect on the life of oral mucosal cells” value [5] is listed as “deleterious effect on the life of these cells”.
For Augmentin, the “outcome of bone lesion” value (MRONJ lesions) was “continued to increase in size and did not heal”.
